# Legend:
# Test in all cases: KINOMEscan scanMAX
# Assay type in all cases: binding
# Details in all cases: read-out: Percent Control
# TRPM6 = target: T1, TRPM6 (Homo sapiens, UniProt Q9BX84)
# T1 construct: purchased Eurofins Discovery (DiscoverX KINOMEscan scanMAX)
# Procedure: (§1) The kinome-wide binding assay was performed by Eurofins Discovery using the scanMAX screening platform. More information can be found on the Eurofins Discovery Web site.
# EPHB1 = target: T2, EPHB1 (Homo sapiens, UniProt P54762)
# T2 construct: purchased Eurofins Discovery (DiscoverX KINOMEscan scanMAX)
# Procedure: as §1
# VRK2 = target: T3, VRK2 (Homo sapiens, UniProt Q86Y07)
# T3 construct: purchased Eurofins Discovery (DiscoverX KINOMEscan scanMAX)
# Procedure: as §1
# CSNK2A2 = target: T4, CSNK2A2 (Homo sapiens, UniProt P19784)
# T4 construct: purchased Eurofins Discovery (DiscoverX KINOMEscan scanMAX)
# Procedure: as §1
# CDK7 = target: T5, CDK7 (Homo sapiens, UniProt P50613)
# T5 construct: purchased Eurofins Discovery (DiscoverX KINOMEscan scanMAX)
# Procedure: as §1
# NDR1 = target: T6, NDR1 (Homo sapiens, UniProt Q15208)
# T6 construct: purchased Eurofins Discovery (DiscoverX KINOMEscan scanMAX)
# Procedure: as §1
# ACVRL1 = target: T7, ACVRL1 (Homo sapiens, UniProt P37023)
# T7 construct: purchased Eurofins Discovery (DiscoverX KINOMEscan scanMAX)
# Procedure: as §1
# DRAK1 = target: T8, DRAK1 (Homo sapiens, UniProt Q9UEE5)
# T8 construct: purchased Eurofins Discovery (DiscoverX KINOMEscan scanMAX)
# Procedure: as §1
# ARK5 = target: T9, ARK5 (Homo sapiens, UniProt O60285)
# T9 construct: purchased Eurofins Discovery (DiscoverX KINOMEscan scanMAX)
# Procedure: as §1
# LKB1 = target: T10, LKB1 (Homo sapiens, UniProt Q15831)
# T10 construct: purchased Eurofins Discovery (DiscoverX KINOMEscan scanMAX)
# Procedure: as §1
# TSSK3 = target: T11, TSSK3 (Homo sapiens, UniProt Q96PN8)
# T11 construct: purchased Eurofins Discovery (DiscoverX KINOMEscan scanMAX)
# Procedure: as §1
# [1] = target: T12, RSK2(Kin.Dom.1-N-terminal) (Homo sapiens, UniProt P51812)
# T12 construct: RSK2(Kin.Dom.1-N-terminal); purchased Eurofins Discovery (DiscoverX KINOMEscan scanMAX)
# Procedure: as §1
# MAP3K3 = target: T13, MAP3K3 (Homo sapiens, UniProt Q99759)
# T13 construct: purchased Eurofins Discovery (DiscoverX KINOMEscan scanMAX)
# Procedure: as §1
# [2] = target: T14, ABL1(Q252H)-phosphorylated (Homo sapiens, UniProt P00519, Q252H)
# T14 construct: purchased Eurofins Discovery (DiscoverX KINOMEscan scanMAX)
# Procedure: as §1
# FGFR3 = target: T15, FGFR3 (Homo sapiens, UniProt P22607)
# T15 construct: purchased Eurofins Discovery (DiscoverX KINOMEscan scanMAX)
# Procedure: as §1
# MAP3K4 = target: T16, MAP3K4 (Homo sapiens, UniProt Q9Y6R4)
# T16 construct: purchased Eurofins Discovery (DiscoverX KINOMEscan scanMAX)
# Procedure: as §1
# RET(V804M) = target: T17, RET(V804M) (Homo sapiens, UniProt P07949, V804M)
# T17 construct: purchased Eurofins Discovery (DiscoverX KINOMEscan scanMAX)
# Procedure: as §1
# FLT3(D835Y) = target: T18, FLT3(D835Y) (Homo sapiens, UniProt P36888, D835Y)
# T18 construct: purchased Eurofins Discovery (DiscoverX KINOMEscan scanMAX)
# Procedure: as §1
# MRCKA = target: T19, MRCKA (Homo sapiens, UniProt Q5VT25)
# T19 construct: purchased Eurofins Discovery (DiscoverX KINOMEscan scanMAX)
# Procedure: as §1
# PCTK3 = target: T20, PCTK3 (Homo sapiens, UniProt Q07002)
# T20 construct: purchased Eurofins Discovery (DiscoverX KINOMEscan scanMAX)
# Procedure: as §1
# PKAC-beta = target: T21, PKAC-beta (Homo sapiens, UniProt P22694)
# T21 construct: purchased Eurofins Discovery (DiscoverX KINOMEscan scanMAX)
# Procedure: as §1
# TGFBR2 = target: T22, TGFBR2 (Homo sapiens, UniProt P37173)
# T22 construct: purchased Eurofins Discovery (DiscoverX KINOMEscan scanMAX)
# Procedure: as §1
# JNK1 = target: T23, JNK1 (Homo sapiens, UniProt P45983)
# T23 construct: purchased Eurofins Discovery (DiscoverX KINOMEscan scanMAX)
# Procedure: as §1
# NDR2 = target: T24, NDR2 (Homo sapiens, UniProt Q9Y2H1)
# T24 construct: purchased Eurofins Discovery (DiscoverX KINOMEscan scanMAX)
# Procedure: as §1
# PIM3 = target: T25, PIM3 (Homo sapiens, UniProt Q86V86)
# T25 construct: purchased Eurofins Discovery (DiscoverX KINOMEscan scanMAX)
# Procedure: as §1
# LATS2 = target: T26, LATS2 (Homo sapiens, UniProt Q9NRM7)
# T26 construct: purchased Eurofins Discovery (DiscoverX KINOMEscan scanMAX)
# Procedure: as §1
# RIOK3 = target: T27, RIOK3 (Homo sapiens, UniProt O14730)
# T27 construct: purchased Eurofins Discovery (DiscoverX KINOMEscan scanMAX)
# Procedure: as §1
# ABL1-nonphosphorylated = target: T28, ABL1-nonphosphorylated (Homo sapiens, UniProt P00519)
# T28 construct: purchased Eurofins Discovery (DiscoverX KINOMEscan scanMAX)
# Procedure: as §1
# EGFR(L858R,T790M) = target: T29, EGFR(L858R,T790M) (Homo sapiens, UniProt P00533, L858R/T790M)
# T29 construct: purchased Eurofins Discovery (DiscoverX KINOMEscan scanMAX)
# Procedure: as §1
# CDK4-cyclinD3 = target: T30, CDK4-cyclinD3 (Homo sapiens, UniProt P11802)
# T30 construct: purchased Eurofins Discovery (DiscoverX KINOMEscan scanMAX)
# Procedure: as §1
# SYK = target: T31, SYK (Homo sapiens, UniProt P43405)
# T31 construct: purchased Eurofins Discovery (DiscoverX KINOMEscan scanMAX)
# Procedure: as §1
# MARK2 = target: T32, MARK2 (Homo sapiens, UniProt Q7KZI7)
# T32 construct: purchased Eurofins Discovery (DiscoverX KINOMEscan scanMAX)
# Procedure: as §1
# [3] = target: T33, ABL1(T315I)-phosphorylated (Homo sapiens, UniProt P00519, T315I)
# T33 construct: purchased Eurofins Discovery (DiscoverX KINOMEscan scanMAX)
# Procedure: as §1
# T30 sequence (P11802 whole entry): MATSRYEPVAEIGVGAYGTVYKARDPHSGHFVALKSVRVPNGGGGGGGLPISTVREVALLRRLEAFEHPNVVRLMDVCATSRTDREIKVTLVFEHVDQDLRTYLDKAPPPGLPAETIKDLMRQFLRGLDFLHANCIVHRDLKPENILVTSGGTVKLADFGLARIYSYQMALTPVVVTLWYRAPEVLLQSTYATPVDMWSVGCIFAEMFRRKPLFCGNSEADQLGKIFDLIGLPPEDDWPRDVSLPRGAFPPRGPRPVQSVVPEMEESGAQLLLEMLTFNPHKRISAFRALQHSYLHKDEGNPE
# T30 sequence (P30281 whole entry partner): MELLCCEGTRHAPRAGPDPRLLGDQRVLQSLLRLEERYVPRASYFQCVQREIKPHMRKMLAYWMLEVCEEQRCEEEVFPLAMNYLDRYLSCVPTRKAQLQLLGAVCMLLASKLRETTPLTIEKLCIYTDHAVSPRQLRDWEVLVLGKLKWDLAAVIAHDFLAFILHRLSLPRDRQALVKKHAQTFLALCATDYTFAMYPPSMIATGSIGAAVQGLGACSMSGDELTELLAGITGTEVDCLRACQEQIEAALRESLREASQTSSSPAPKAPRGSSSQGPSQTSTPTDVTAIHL
# T10 sequence (Q15831 whole entry): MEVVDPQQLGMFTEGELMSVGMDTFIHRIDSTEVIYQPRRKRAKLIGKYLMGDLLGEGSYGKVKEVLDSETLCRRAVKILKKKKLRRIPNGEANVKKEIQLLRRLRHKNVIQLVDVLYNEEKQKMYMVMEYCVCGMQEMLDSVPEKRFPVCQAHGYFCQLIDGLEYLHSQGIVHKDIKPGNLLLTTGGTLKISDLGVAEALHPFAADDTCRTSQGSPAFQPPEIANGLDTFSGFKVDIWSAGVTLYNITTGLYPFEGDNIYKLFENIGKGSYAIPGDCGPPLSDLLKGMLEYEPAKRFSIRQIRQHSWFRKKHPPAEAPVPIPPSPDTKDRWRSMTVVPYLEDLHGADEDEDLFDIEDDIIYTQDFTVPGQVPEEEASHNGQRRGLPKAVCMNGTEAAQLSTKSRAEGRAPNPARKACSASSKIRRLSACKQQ
# T26 sequence (Q9NRM7 whole entry): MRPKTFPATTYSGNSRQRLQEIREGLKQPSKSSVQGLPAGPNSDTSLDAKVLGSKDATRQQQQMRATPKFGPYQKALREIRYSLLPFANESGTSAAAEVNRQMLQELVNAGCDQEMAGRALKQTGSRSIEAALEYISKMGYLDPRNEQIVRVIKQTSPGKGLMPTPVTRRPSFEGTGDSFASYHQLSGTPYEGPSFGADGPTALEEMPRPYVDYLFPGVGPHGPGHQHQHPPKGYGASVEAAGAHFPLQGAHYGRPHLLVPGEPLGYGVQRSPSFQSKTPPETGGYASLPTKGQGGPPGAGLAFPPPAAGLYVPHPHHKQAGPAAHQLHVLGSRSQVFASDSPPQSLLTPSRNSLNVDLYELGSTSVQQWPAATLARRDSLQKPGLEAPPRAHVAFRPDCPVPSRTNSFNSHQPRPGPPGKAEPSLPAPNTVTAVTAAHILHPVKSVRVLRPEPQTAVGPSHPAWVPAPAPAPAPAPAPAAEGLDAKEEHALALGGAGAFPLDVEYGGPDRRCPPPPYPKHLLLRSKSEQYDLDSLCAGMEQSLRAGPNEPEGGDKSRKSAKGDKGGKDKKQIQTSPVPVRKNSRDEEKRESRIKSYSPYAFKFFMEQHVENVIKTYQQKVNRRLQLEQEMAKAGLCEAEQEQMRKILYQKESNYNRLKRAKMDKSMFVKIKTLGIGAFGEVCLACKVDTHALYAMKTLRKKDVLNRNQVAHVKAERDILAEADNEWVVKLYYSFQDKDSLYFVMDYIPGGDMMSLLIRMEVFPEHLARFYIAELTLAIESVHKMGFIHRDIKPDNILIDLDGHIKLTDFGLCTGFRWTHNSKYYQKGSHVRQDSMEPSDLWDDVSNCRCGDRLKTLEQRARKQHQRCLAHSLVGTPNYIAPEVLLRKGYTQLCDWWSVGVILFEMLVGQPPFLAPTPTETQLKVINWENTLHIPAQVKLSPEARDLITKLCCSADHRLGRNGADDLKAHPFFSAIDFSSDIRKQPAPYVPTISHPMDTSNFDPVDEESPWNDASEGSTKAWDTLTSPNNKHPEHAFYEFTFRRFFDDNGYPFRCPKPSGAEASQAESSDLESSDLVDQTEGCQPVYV
# T16 sequence (Q9Y6R4 whole entry): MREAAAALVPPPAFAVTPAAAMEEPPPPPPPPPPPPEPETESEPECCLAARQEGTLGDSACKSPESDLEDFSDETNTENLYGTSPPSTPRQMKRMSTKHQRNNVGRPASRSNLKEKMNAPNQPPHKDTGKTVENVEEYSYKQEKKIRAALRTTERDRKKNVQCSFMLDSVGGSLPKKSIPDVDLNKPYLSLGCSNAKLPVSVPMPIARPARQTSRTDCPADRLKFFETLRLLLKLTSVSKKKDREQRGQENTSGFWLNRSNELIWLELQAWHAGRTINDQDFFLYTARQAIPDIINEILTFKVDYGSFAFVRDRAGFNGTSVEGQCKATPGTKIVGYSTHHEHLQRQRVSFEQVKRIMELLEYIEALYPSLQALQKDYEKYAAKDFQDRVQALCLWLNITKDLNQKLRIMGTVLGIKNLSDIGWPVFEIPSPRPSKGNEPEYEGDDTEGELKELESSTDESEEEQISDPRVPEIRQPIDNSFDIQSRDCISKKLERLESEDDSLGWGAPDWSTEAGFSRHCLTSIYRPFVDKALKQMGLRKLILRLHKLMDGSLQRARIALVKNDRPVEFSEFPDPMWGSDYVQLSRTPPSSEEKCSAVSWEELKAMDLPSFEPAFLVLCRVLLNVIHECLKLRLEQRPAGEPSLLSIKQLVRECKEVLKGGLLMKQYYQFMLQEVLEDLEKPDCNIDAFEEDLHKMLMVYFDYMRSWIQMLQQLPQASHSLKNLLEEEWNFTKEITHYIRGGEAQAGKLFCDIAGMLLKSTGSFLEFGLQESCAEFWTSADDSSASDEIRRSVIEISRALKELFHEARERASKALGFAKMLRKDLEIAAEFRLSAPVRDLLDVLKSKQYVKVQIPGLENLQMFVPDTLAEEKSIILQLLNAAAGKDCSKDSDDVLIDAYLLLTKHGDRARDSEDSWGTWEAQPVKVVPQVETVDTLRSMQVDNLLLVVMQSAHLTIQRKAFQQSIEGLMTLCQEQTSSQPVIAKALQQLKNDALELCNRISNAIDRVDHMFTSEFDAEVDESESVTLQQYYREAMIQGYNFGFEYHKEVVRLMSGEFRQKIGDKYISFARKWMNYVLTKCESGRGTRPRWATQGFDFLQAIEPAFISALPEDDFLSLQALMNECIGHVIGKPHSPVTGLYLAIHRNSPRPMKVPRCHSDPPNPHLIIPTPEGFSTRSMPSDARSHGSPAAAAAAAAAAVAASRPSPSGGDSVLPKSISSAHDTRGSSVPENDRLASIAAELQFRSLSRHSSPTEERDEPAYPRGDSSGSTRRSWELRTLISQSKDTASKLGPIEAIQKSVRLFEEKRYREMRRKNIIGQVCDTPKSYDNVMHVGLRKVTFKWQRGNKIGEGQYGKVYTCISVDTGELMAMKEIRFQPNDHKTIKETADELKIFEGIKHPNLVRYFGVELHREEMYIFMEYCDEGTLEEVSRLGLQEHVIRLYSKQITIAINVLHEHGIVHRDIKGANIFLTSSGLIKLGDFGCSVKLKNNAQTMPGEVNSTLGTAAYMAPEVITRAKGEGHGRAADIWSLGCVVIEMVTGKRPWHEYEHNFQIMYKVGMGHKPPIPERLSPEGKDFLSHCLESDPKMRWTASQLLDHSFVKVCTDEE
# T17 sequence (P07949 29-1114 V804M): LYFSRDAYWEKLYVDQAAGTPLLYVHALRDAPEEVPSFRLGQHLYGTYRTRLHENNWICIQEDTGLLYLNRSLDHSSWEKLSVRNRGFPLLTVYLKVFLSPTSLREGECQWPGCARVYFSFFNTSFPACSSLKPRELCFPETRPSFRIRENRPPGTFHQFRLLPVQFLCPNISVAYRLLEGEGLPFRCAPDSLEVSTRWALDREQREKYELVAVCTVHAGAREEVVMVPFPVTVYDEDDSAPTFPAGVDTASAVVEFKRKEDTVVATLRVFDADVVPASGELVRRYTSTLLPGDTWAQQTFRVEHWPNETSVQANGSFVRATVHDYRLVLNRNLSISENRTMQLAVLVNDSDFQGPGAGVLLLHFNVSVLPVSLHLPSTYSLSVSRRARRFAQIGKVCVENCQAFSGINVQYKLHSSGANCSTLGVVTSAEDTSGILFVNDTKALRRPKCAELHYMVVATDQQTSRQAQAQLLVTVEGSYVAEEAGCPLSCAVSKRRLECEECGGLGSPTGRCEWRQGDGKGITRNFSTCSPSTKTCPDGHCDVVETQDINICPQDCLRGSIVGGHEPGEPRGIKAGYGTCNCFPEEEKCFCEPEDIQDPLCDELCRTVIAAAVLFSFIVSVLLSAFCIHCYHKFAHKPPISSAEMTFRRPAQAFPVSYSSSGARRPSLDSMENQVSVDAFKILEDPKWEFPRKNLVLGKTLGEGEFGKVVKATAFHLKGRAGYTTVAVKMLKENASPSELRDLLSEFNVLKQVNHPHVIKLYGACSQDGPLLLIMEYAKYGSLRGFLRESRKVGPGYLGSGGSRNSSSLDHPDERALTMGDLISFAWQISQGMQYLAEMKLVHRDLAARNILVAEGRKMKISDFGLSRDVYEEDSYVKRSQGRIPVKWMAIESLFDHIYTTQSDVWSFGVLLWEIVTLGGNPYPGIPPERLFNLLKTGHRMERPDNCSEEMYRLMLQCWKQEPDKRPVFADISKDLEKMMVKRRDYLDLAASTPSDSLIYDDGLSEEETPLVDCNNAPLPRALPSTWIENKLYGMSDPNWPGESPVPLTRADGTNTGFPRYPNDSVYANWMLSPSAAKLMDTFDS
# T11 sequence (Q96PN8 whole entry): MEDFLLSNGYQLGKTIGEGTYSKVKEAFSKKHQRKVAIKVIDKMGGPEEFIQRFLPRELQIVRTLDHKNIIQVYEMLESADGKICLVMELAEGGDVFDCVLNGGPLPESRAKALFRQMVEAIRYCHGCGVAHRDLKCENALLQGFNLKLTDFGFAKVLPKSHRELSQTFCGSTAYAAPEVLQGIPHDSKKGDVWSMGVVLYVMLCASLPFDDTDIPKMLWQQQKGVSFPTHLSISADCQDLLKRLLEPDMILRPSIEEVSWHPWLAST
smiles,measurement,setting,value
Cc1cc(Nc2ccc(F)c(CC3(C(=O)N4CCC(F)(CN5CCN(c6ccc(N7CCC(=O)NC7=O)cn6)CC5)CC4)CCN(Cc4cccc(Cl)c4F)CC3)n2)n[nH]1 [SK5527],remaining binding at 0.1 µM,TRPM6; 100 nM,100%
same,remaining binding at 1 µM,TRPM6; 1000 nM,100%
same,remaining binding at 0.1 µM,EPHB1; 100 nM,96%
same,remaining binding at 1 µM,EPHB1; 1000 nM,79%
same,remaining binding at 0.1 µM,VRK2; 100 nM,82%
same,remaining binding at 1 µM,VRK2; 1000 nM,77%
same,remaining binding at 0.1 µM,CSNK2A2; 100 nM,100%
same,remaining binding at 1 µM,CSNK2A2; 1000 nM,100%
same,remaining binding at 0.1 µM,CDK7; 100 nM,91%
same,remaining binding at 1 µM,CDK7; 1000 nM,100%
same,remaining binding at 0.1 µM,NDR1; 100 nM,98%
same,remaining binding at 1 µM,NDR1; 1000 nM,82%
same,remaining binding at 0.1 µM,ACVRL1; 100 nM,100%
same,remaining binding at 1 µM,ACVRL1; 1000 nM,100%
same,remaining binding at 0.1 µM,DRAK1; 100 nM,100%
same,remaining binding at 1 µM,DRAK1; 1000 nM,87%
same,remaining binding at 0.1 µM,ARK5; 100 nM,83%
same,remaining binding at 1 µM,ARK5; 1000 nM,90%
same,remaining binding at 0.1 µM,LKB1; 100 nM,82%
same,remaining binding at 1 µM,LKB1; 1000 nM,83%
same,remaining binding at 0.1 µM,TSSK3; 100 nM,95%
same,remaining binding at 1 µM,TSSK3; 1000 nM,99%
same,remaining binding at 0.1 µM,[1]; 100 nM,80%
same,remaining binding at 1 µM,[1]; 1000 nM,68%
same,remaining binding at 0.1 µM,MAP3K3; 100 nM,100%
same,remaining binding at 1 µM,MAP3K3; 1000 nM,96%
same,remaining binding at 0.1 µM,[2]; 100 nM,68%
same,remaining binding at 1 µM,[2]; 1000 nM,44%
same,remaining binding at 0.1 µM,FGFR3; 100 nM,96%
same,remaining binding at 1 µM,FGFR3; 1000 nM,84%
same,remaining binding at 0.1 µM,MAP3K4; 100 nM,72%
same,remaining binding at 1 µM,MAP3K4; 1000 nM,87%
same,remaining binding at 0.1 µM,RET(V804M); 100 nM,85%
same,remaining binding at 1 µM,RET(V804M); 1000 nM,65%
same,remaining binding at 0.1 µM,FLT3(D835Y); 100 nM,69%
same,remaining binding at 1 µM,FLT3(D835Y); 1000 nM,72%
same,remaining binding at 0.1 µM,MRCKA; 100 nM,100%
same,remaining binding at 1 µM,MRCKA; 1000 nM,93%
same,remaining binding at 0.1 µM,PCTK3; 100 nM,91%
same,remaining binding at 1 µM,PCTK3; 1000 nM,84%
same,remaining binding at 0.1 µM,PKAC-beta; 100 nM,90%
same,remaining binding at 1 µM,PKAC-beta; 1000 nM,100%
same,remaining binding at 0.1 µM,TGFBR2; 100 nM,100%
same,remaining binding at 1 µM,TGFBR2; 1000 nM,100%
same,remaining binding at 0.1 µM,JNK1; 100 nM,72%
same,remaining binding at 1 µM,JNK1; 1000 nM,95%
same,remaining binding at 0.1 µM,NDR2; 100 nM,100%
same,remaining binding at 1 µM,NDR2; 1000 nM,91%
same,remaining binding at 0.1 µM,PIM3; 100 nM,100%
same,remaining binding at 1 µM,PIM3; 1000 nM,100%
same,remaining binding at 0.1 µM,LATS2; 100 nM,69%
same,remaining binding at 1 µM,LATS2; 1000 nM,43%
same,remaining binding at 0.1 µM,RIOK3; 100 nM,96%
same,remaining binding at 1 µM,RIOK3; 1000 nM,82%
same,remaining binding at 0.1 µM,ABL1-nonphosphorylated; 100 nM,55%
same,remaining binding at 1 µM,ABL1-nonphosphorylated; 1000 nM,8.4%
same,remaining binding at 0.1 µM,"EGFR(L858R,T790M); 100 nM",82%
same,remaining binding at 1 µM,"EGFR(L858R,T790M); 1000 nM",87%
same,remaining binding at 0.1 µM,CDK4-cyclinD3; 100 nM,100%
same,remaining binding at 1 µM,CDK4-cyclinD3; 1000 nM,100%
same,remaining binding at 0.1 µM,SYK; 100 nM,83%
same,remaining binding at 1 µM,SYK; 1000 nM,100%
same,remaining binding at 0.1 µM,MARK2; 100 nM,91%
same,remaining binding at 1 µM,MARK2; 1000 nM,62%
same,remaining binding at 0.1 µM,[3]; 100 nM,62%
same,remaining binding at 1 µM,[3]; 1000 nM,17%

# From article PMC12670405, “Second-Generation AURKA-Targeting PROTACs: Structural Optimization toward in Vivo Degradation in Neuroblastoma” (Journal of Medicinal Chemistry, 2025)
